Some test systems named below: M14; PC-3; HOP-92; EKVX; SK-OV-3; MDA-MB-231; HCT-15; HCC 2998; 786-0; SK-MEL-5; BT-549; OVCAR-4; HCT-116; HT-29; MDA-MB-435; CAKI-1; CCRF-CEM; COLO 205; IGROV-1; MOLT-4.
What all share (assay): DTP human tumour cell line panel, 48 h

Molecules are shown by their SMILES.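 Assay format: 96-well plates, 48-hour exposure. GI50 = concentration required for 50% inhibition of growth.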 Activity calls are given as the source filed them. Rule as the data show it: active = GI50 up to about 1.1 µM and inactive = higher.

The values below come from ChEMBL document CHEMBL1201862, “PubChem BioAssay data set” (2004).

Usually GI50 stands for the concentration that inhibits growth by half. For `Cc1noc2nnn(-c3ccc(Cl)cc3)c(=O)c12`, the GI50 in the experiment with M14 was 11.8 µM (inactive); with PC-3, 3.71 µM (inactive); in the experiment with HOP-92, 6.4 µM (inactive); with EKVX, 7.11 µM (inactive); in the experiment with SK-OV-3, 5.52 µM (inactive); in the experiment on MDA-MB-231 it was 8.95 µM (inactive). Besides, the GI50 in the experiment on HCT-15 is 2.31 µM; in the experiment on HCC 2998, 2.15 µM (inactive); in the experiment with 786-0, 2.45 µM (inactive); in the experiment with SK-MEL-5, 3.82 µM (inactive); with BT-549, 3.16 µM (inactive); with OVCAR-4, 3.18 µM (inactive). For the same molecule, the GI50 with HCT-116 is 2.89 µM (inactive); in the experiment with HT-29, 4.42 µM (inactive); with MDA-MB-435 it was 2.95 µM (inactive); in the experiment on CAKI-1, 2.05 µM (inactive); with CCRF-CEM, 0.355 µM (active); in the experiment with COLO 205, 2.96 µM (inactive). Also, the GI50 was 5.33 µM (inactive) with IGROV-1 and 0.364 µM (active) with MOLT-4.
Regarding `Cc1ccccc1C1CC(=O)CC(c2ccccc2C)C12C(=O)NC(=O)NC2=O` (stereo not given), the GI50 in the experiment on M14 was > 100 µM (inactive); in the experiment with PC-3, > 100 µM (inactive); in the experiment with HOP-92, 19 µM (inactive); in the experiment on EKVX, > 100 µM (inactive); with SK-OV-3, > 100 µM (inactive); in the experiment on MDA-MB-231, > 100 µM (inactive). In addition, the 50% growth inhibitory concentration (GI50) was above 100 µM with HCT-15; > 100 µM (inactive) with HCC 2998; > 100 µM (inactive) in the experiment with 786-0; > 100 µM (inactive) in the experiment with SK-MEL-5; > 100 µM (inactive) in the experiment on BT-549; > 62.4 µM (inactive) in the experiment on OVCAR-4. The GI50 in the experiment on HCT-116 is > 100 µM (inactive); with HT-29, > 100 µM (inactive); with MDA-MB-435, > 77.8 µM (inactive); in the experiment on CAKI-1, > 100 µM (inactive); with CCRF-CEM it was > 65.3 µM (inactive); in the experiment with COLO 205, > 100 µM (inactive). The GI50 in the experiment on IGROV-1 is 62.5 µM (inactive); with MOLT-4 it was > 78.5 µM (inactive).
Take `CC(C)=C1C(=O)C[C@]2(C)C[C@H]3/C(=C(/C)CCC12)CC[C@@]3(C)O` (stereo not given in full): the GI50 was > 50 µM (inactive) in the experiment on M14; 30.7 µM (inactive) in the experiment with PC-3; > 50 µM (inactive) in the experiment with HOP-92; > 50 µM (inactive) in the experiment with EKVX; > 50 µM (inactive) with SK-OV-3; > 50 µM (inactive) with MDA-MB-231. Also, the concentration for 50% growth inhibition (GI50) was 40.1 µM with HCT-15; > 50 µM (inactive) in the experiment on HCC 2998; > 50 µM (inactive) with 786-0; 40.4 µM (inactive) in the experiment on SK-MEL-5; > 50 µM (inactive) with BT-549; > 50 µM (inactive) in the experiment on OVCAR-4. The GI50 was 46.2 µM (inactive) with HCT-116; > 50 µM (inactive) in the experiment on HT-29; > 50 µM (inactive) in the experiment on MDA-MB-435; > 50 µM (inactive) in the experiment with CAKI-1; 20.3 µM (inactive) in the experiment on CCRF-CEM; 45 µM (inactive) with COLO 205. Also, the GI50 in the experiment on IGROV-1 was > 50 µM (inactive); in the experiment with MOLT-4, 14.9 µM (inactive).
Turning to `COc1ccc(N2C=Nn3c(nc4sc(C)c(C)c4c3=O)C2)cc1`, the GI50 with M14, in the experiment with PC-3, in the experiment with HOP-92, in the experiment with EKVX, with SK-OV-3 and with MDA-MB-231 was > 100 µM (inactive) throughout. Besides, the 50% growth inhibitory concentration (GI50) with HCT-15 is above 100 µM; with HCC 2998, > 100 µM (inactive); with 786-0, 38.3 µM (inactive); in the experiment on SK-MEL-5, > 100 µM (inactive); in the experiment on BT-549, > 100 µM (inactive); in the experiment with OVCAR-4, > 100 µM (inactive). Moreover, the GI50 in the experiment with HCT-116, in the experiment with HT-29, in the experiment on MDA-MB-435, in the experiment with CAKI-1, in the experiment on CCRF-CEM and in the experiment on COLO 205 was > 100 µM (inactive) each time. Besides, the GI50 with IGROV-1 and in the experiment on MOLT-4 was > 100 µM (inactive) each time.
Consider `Cn1c(=O)cc(NNc2ccc(Cl)c(Cl)c2)[nH]c1=O`, for which the GI50 was 5.25 µM (inactive) with M14; 12.6 µM (inactive) in the experiment with PC-3; 14.9 µM (inactive) in the experiment on HOP-92; 10 µM (inactive) with EKVX; 20.8 µM (inactive) in the experiment on SK-OV-3; 10.8 µM (inactive) with MDA-MB-231. The GI50 is 3.75 µM in the experiment with HCT-15; 2.53 µM (inactive) in the experiment with HCC 2998; 12.4 µM (inactive) in the experiment on 786-0; 5.31 µM (inactive) with SK-MEL-5; 16 µM (inactive) in the experiment with BT-549; 10.7 µM (inactive) in the experiment on OVCAR-4. In addition, the GI50 with HCT-116 was 7.19 µM (inactive); with HT-29, 18 µM (inactive); in the experiment with MDA-MB-435 it was 3.31 µM (inactive); with CAKI-1 it was 14.1 µM (inactive); in the experiment on CCRF-CEM, 13.1 µM (inactive); with COLO 205, 18.9 µM (inactive). Further, the GI50 in the experiment on IGROV-1 was 6.52 µM (inactive); in the experiment on MOLT-4 it was 14.5 µM (inactive).
Regarding `COc1ccc([C@]23CCN(S(=O)(=O)c4ccc(C)cc4)[C@H]2[C@H](CO)C2(CC3)OCC(C)(C)CO2)cc1OC`, the GI50 in the experiment with M14, in the experiment on PC-3, with HOP-92, in the experiment on EKVX, in the experiment on SK-OV-3 and with MDA-MB-231 was > 100 µM (inactive) each time. For the same molecule, the GI50 in the experiment with HCT-15 was above 100 µM; in the experiment on HCC 2998 it was > 100 µM (inactive); in the experiment on 786-0, > 100 µM (inactive); with SK-MEL-5, > 100 µM (inactive); in the experiment with BT-549, > 100 µM (inactive); in the experiment with OVCAR-4 it was > 100 µM (inactive). In addition, the GI50 in the experiment on HCT-116, in the experiment with HT-29, in the experiment with MDA-MB-435, with CAKI-1, with CCRF-CEM and in the experiment on COLO 205 was > 100 µM (inactive) throughout. The GI50 with IGROV-1 and in the experiment with MOLT-4 was > 100 µM (inactive) throughout.
With `Cc1cc(NS(=O)(=O)c2ccc(NO)cc2)no1`, the GI50 was 70.6 µM (inactive) in the experiment with M14; > 100 µM (inactive) with PC-3; > 100 µM (inactive) in the experiment on HOP-92; > 100 µM (inactive) with EKVX; > 100 µM (inactive) with SK-OV-3; 34.7 µM (inactive) in the experiment on MDA-MB-231. In addition, the GI50 with HCT-15 is 32.4 µM; with HCC 2998, > 100 µM (inactive); in the experiment with 786-0 it was 33 µM (inactive); in the experiment on SK-MEL-5, > 100 µM (inactive); with BT-549, > 100 µM (inactive); in the experiment with OVCAR-4, 67.3 µM (inactive). For the same molecule, the GI50 in the experiment with HCT-116 was 28.5 µM (inactive); with HT-29 it was 41.3 µM (inactive); with MDA-MB-435, 19.5 µM (inactive); with CAKI-1, > 100 µM (inactive); in the experiment on CCRF-CEM, 8.65 µM (inactive); in the experiment on COLO 205, > 100 µM (inactive). The results for the GI50 with IGROV-1 and in the experiment with MOLT-4 were > 100 µM (inactive) and 43 µM (inactive), respectively.
As to `COc1ccc(/N=N/N2CCCC2)cc1`, the GI50 with M14 is 44.8 µM (inactive); in the experiment with PC-3, 36.5 µM (inactive); in the experiment with HOP-92, 21.7 µM (inactive); in the experiment on EKVX, 19.7 µM (inactive); with SK-OV-3, > 100 µM (inactive); in the experiment on MDA-MB-231 it was 20.5 µM (inactive). Also, the GI50 was 22.6 µM in the experiment on HCT-15; 45.6 µM (inactive) in the experiment on HCC 2998; 15.6 µM (inactive) with 786-0; 30.4 µM (inactive) in the experiment on SK-MEL-5; 23.2 µM (inactive) in the experiment on BT-549; 18.6 µM (inactive) with OVCAR-4. The GI50 in the experiment on HCT-116 is 20.1 µM (inactive); with HT-29, 40.2 µM (inactive); in the experiment on MDA-MB-435, 70.6 µM (inactive); with CAKI-1, 16.2 µM (inactive); in the experiment with CCRF-CEM, 16.7 µM (inactive); with COLO 205 it was 17.9 µM (inactive). Moreover, the GI50 is 14.9 µM (inactive) with IGROV-1 and 26.9 µM (inactive) with MOLT-4.
In the case of `Cc1c(-c2nc3ccccc3[nH]2)c(=O)n(-c2ccccc2)n1C`, the GI50 in the experiment with M14, in the experiment on PC-3, in the experiment on HOP-92, in the experiment on EKVX, in the experiment with SK-OV-3 and in the experiment on MDA-MB-231 was > 100 µM (inactive) in each case. The concentration for 50% growth inhibition (GI50) was above 100 µM in the experiment with HCT-15; > 100 µM (inactive) in the experiment on HCC 2998; > 100 µM (inactive) in the experiment on 786-0; > 100 µM (inactive) in the experiment with SK-MEL-5; > 100 µM (inactive) with BT-549; > 100 µM (inactive) in the experiment with OVCAR-4. Moreover, the GI50 in the experiment with HCT-116, in the experiment on HT-29, in the experiment with MDA-MB-435, in the experiment on CAKI-1, with CCRF-CEM and in the experiment with COLO 205 was > 100 µM (inactive) throughout. Further, the GI50 with IGROV-1 and in the experiment with MOLT-4 was > 100 µM (inactive) in each case.
Turning to `COc1ccc(N2C(=O)C(C#N)=C(SC)C(C#N)C2=O)cc1` (stereo not given), the GI50 was > 100 µM (inactive) with M14; > 100 µM (inactive) with PC-3; 46.6 µM (inactive) in the experiment with HOP-92; > 100 µM (inactive) in the experiment on EKVX; > 100 µM (inactive) in the experiment on SK-OV-3; > 100 µM (inactive) in the experiment with MDA-MB-231. In addition, the concentration for 50% growth inhibition (GI50) is above 100 µM with HCT-15; > 100 µM (inactive) in the experiment with HCC 2998; > 100 µM (inactive) in the experiment on 786-0; > 100 µM (inactive) in the experiment on SK-MEL-5; > 100 µM (inactive) with BT-549; > 100 µM (inactive) in the experiment with OVCAR-4. The GI50 with HCT-116, with HT-29, with MDA-MB-435, in the experiment on CAKI-1, in the experiment on CCRF-CEM and in the experiment on COLO 205 was > 100 µM (inactive) throughout. The GI50 in the experiment with IGROV-1 and with MOLT-4 was > 100 µM (inactive) each time.
